According to patent US12540142B2, “Method for evaluating quality of (3S)-3-(4-(3-(1,4-dioxaspiro[4,5]dec-7-en-8-yl)benzyloxy)phenyl)hex-4-inoic acid” (Hyundai Pharm Co., Ltd., priority 2020, dated 2026):

What was measured:
[1] = research project title; no test described; cited from earlier work
[2] = research project title; no test described; cited from earlier work; remark: listed apart in the source
[3] = Related substance analysis by HPLC after refrigerated storage for about 2 years; format: physicochemical; conditions: substance stored under refrigerated conditions (5° C.±3° C.) for about 2 years; for Area %: HPLC 220 nm
Description: About 35 mg of a (3S)-3-(4-(3-(1,4-dioxaspiro[4,5]dec-7-en yl)benzyloxy)phenyl)hex-4-inoic acid-containing substance stored under refrigerated conditions (5° C.±3° C.) for about 2 years was accurately weighed and put into a 50-ml volume flask, a diluent was added to the flask at about ⅔ of the volume, and the resulting mixture was mixed well. Thereafter, a related substance was analyzed using HPLC (Agilent Technologies 1200 Series).
<HPLC conditions> Operation Parameters
Column: Kinetex EVO C18, 5 um, 4.6×250 mm
Column temperature: 25° C.
Sample concentration: 0.7 mg/ml
Mobile Phase A: 0.01 M K2HPO4 (pH 7)

[4] = Stress sample with oxidant (3% hydrogen peroxide), related substance analysis by HPLC; format: physicochemical; conditions: 3% hydrogen peroxide solution, room temperature, 24 hours; HPLC as in Example 1
Description: A stress sample stressed using an oxidant was prepared to confirm the production of the related substance. About 35 mg of a (3S)-3-(4-(3-(1,4-dioxaspiro[4,5]dec-7-en-8-yl)benzyloxy)phenyl)hex-4-inoic acid-containing substance stored under refrigerated conditions (5° C.±3° C.) for about 2 years was accurately weighed and put into a 50-ml volume flask. A diluent was added to the flask at about ⅔ of the volume, and the resulting mixture was mixed well. After 2 ml of a 3% hydrogen peroxide solution was added thereto, the resulting mixture was mixed well and marked with a diluent. The stress sample was left to stand at room temperature, and 24 hours later, the related substance was analyzed using HPLC (Agilent Technologies 1200 Series). The related substance was analyzed under the same conditions as in Example 1. As a result, it was confirmed that the related substance was produced from the stress sample (RRT 0.93, Area 3.83%). A comparison of the HPLC data of both samples using the sample of Example 1 as a control is shown in FIG. 4 (blue: control, green: stress sample). It was confirmed that the production of the related substance of Chemical Formula 2 in the stress sample was increased compared to the control.

Row | SMILES | EC50 [1] [nM] | hypoglycemic effect (HbA1c) [2] [%] | Area % [3] [%] | Area % of related substance (RRT: 0.93) ([3]; HPLC) [%] | Area of related substance produced (RRT 0.93) [4] [%]
1 | CC#C[C@@H](CC(=O)O)c1ccc(OCc2cccc(C3=CCC4(CC3)OCCO4)c2)cc1 [HD-6277] | < 1 | > 1 |  |  | 
2 | CC#C[C@@H](CC(=O)O)c1ccc(OCc2cccc(C34CCC5(CC3O4)OCCO5)c2)cc1 (stereo partly drawn) [Chemical Formula 2, (3S)-3-(4-((3-(7-oxaspiro[bicyclo[4.1.0]heptane-3,2′-[1,3]dioxolan]-6-yl)benzyl)oxy)phenyl)hex-4-inoic acid] |  |  | 0.2566 | 0.26 | 3.83
3 | CC#C[C@@H](CC(=O)O)c1ccc(OCc2cccc(C3=CCC4(CC3)OCCO4)c2)cc1 [Chemical Formula 1, (3S)-3-(4-(3-(1,4-dioxaspiro[4,5]dec-7-en-8-yl)benzyloxy)phenyl)hex-4-inoic acid] |  |  | 98.9289 |  | 
